The values that follow come from patent US9303061B2, “Spiro compounds as Hepatitis C virus inhibitors” (Sunshine Luke Pharma Co., Ltd., priority 2011, dated 2016).

Each structure is given as a SMILES string.

The test system of one test is HCV GT1a replicon cells. In words: HCV replicon assay, GT1a replicon cells (luciferase reporter / NEO gene qPCR). The format is cell-based. The settings on record: EC50 range against HCV 1a genotype, 72 hours incubation. The protocol: (§1) An HCV Replicon assay was utilized in the present disclosure, and was prepared, developed and validated as described in Science, 1999, 285 (5424), 110-3 and J. Virol., 2003, 77 (5), 3007-19.
(§2) HCV GT1a, GT1b and GT2a replicon cells were used to test the currently described compound series as well as wild-type cells HCV 1b and resistant cells Y93H, L31F, P32L and 1302V. GT1a, GT1b and GT2a are HCV Replicon System which is transfected HCV 1a, 1b, 2a genotype respectively. The system containing G418 resistance gene NEO and Luciferase Reporter Gene can be used to determine the level of HCV replication, and evaluate the effects of the compounds inhibiting HCV replication, by using a real-time quantitative polymerase chain reaction (qPCR) method to detect NEO, and chemiluminescence method to test Luciferase Reporter Gene.
(§3) 1. Testing EC50 of the Compounds by Luciferase Assay
(§4) The GT1a cells and GT1b cells were seeded into 96-well plates (8,000 cells in 125 μl/well) respectively; each compound was diluted to desired concentration using 5-fold serial dilutions protocol, 10 dose in duplicate, and added to wells with POD™ 810 Plate Assembler. The final concentration of DMSO was 0.5%; the plates were incubated in a CO2 incubator for 72 hours; after that, 40 μl of Luciferase assay substrate (Promega Bright-Glo) was added to each well, and detected by a chemiluminescence detection system (Topcount Microplate Scintillation and Luminescence Counter) 5 minutes later; data analysis.
(§5) 2. Testing EC50 of the Compounds by Detecting Antibiotic G418 Resistance Gene NEO Gene
(§6) The GT1a cells and GT1b cells were seeded into 96-well plates (8,000 cells in 125 μl/well) respectively; each compound was diluted to desired concentration using 5-fold serial dilutions protocol, 10 dose in duplicate, and added to wells with POD™ 810 Plate Assembler, the final concentration of DMSO was 0.5%; the cells were incubated in a CO2 incubator for 72 hours; quantitative PCR. • Sample preparation: the supernatant was removed, 100 μl of FCW buffer solution was added to each well, washed carefully and discarded the solution; 50 μl of lysate FCP was added to each well, the cells was lysed as PCR template and PCR template was diluted with DEPC water as sample template. • Quantitative PCR: preparation of reaction mixture according to PCR system; the reaction mixture was dispensed into a 384-well PCR reaction plate (specially for quantitative); and a standard template which was diluted in proportion was distributed into the plate; and the sample template was distributed into the plate; then the 384-well plate was sealed with closure plate membrane; the […] PCR machine was operated by procedures; data analysis.
(§7) 3. Data processing: EC50 values of compounds were analyzed by GRAPHPAD PRISM® software.
Background: Replicon systems follow genome replication, usually without infectious particles.

The next test has as its system HCV GT1b replicon cells. Kind of test: HCV replicon assay, GT1b replicon cells (luciferase reporter / NEO gene qPCR). The format is cell-based. The settings on record: EC50 range against HCV 1b genotype, 72 hours incubation. As to the method: as §1, §2, §3, §4, §5, §6, §7

Usually EC50 stands for the concentration needed to bring the measured effect to its halfway point. Low readings indicate an effect from little substance, high ones a need for much substance. On to `COC(=O)N[C@H](C(=O)N1C[C@@H](C)C[C@H]1c1ncc(-c2ccc(-c3ccc(-c4cnc([C@@H]5C[C@H](C)CN5C(=O)[C@@H](NC(=O)OC)C(C)C)[nH]4)c4c3CC3(CCCCC3)C4)cc2)[nH]1)C(C)C` [Example 20], for which the EC50 in the test on HCV GT1a replicon cells is 0.001 to 0.1 nM; in the test with HCV GT1b replicon cells, 0.101 to 1 nM.
As to `COC(=O)N[C@H](C(=O)N1CCC[C@H]1c1ncc(-c2ccc(-c3ccc(-c4ccc5nc([C@@H]6CCCN6C(=O)[C@@H](NC(=O)OC)C(C)C)[nH]c5c4)c4c3CC3(CCCC3)C4)nc2)[nH]1)C(C)C` [Example 21], the EC50 with HCV GT1a replicon cells (Hepatitis C virus, GT1A) lay in the range of 0.001 to 0.1 nM; with HCV GT1b replicon cells (Hepatitis C virus, GT1B, 72 h), 1 to 10 nM.
For `COC(=O)N[C@H](C(=O)N1CCC[C@H]1c1nc2ccc(-c3ccc(-c4ccc5nc([C@@H]6CCCN6C(=O)[C@@H](NC(=O)OC)C(C)C)[nH]c5c4)c4c3CC3(CCCC3)C4)cc2[nH]1)C(C)C` [Example 22], in that order: 0.001 to 0.1 nM and 0.001 to 0.1 nM.
Consider `COC(=O)N[C@H](C(=O)N1CCC[C@H]1c1ncc(-c2ccc(-c3ccc(-c4ccc5nc([C@@H]6CCCN6C(=O)[C@@H](NC(=O)OC)C(C)C)[nH]c5c4)c4c3CC3(CCCC3)C4)cc2)[nH]1)C(C)C` [Example 23], for which the EC50 with HCV GT1a replicon cells (Hepatitis C virus, GT1A) lay within 0.001 to 0.1 nM; in the test with HCV GT1b replicon cells (Hepatitis C virus, GT1B, 72 h), 0.001 to 0.1 nM.
Regarding `CCC(=O)N[C@H](C(=O)N1CCC[C@H]1c1ncc(-c2ccc(-c3ccc(C#Cc4cnc([C@@H]5CCCN5C(=O)[C@@H](NC(=O)OC)C(C)C)[nH]4)c4c3CC3(CCCC3)C4)cc2)[nH]1)C(C)C` [Example 24], the EC50 lay within 0.001 to 0.1 nM in the test with HCV GT1a replicon cells (Hepatitis C virus, GT1A) and 0.001 to 0.1 nM with HCV GT1b replicon cells (Hepatitis C virus, GT1B, 72 h).
As to `COC(=O)N[C@H](C(=O)N1C[C@H](F)C[C@H]1c1ncc(-c2ccc(-c3ccc(-c4cnc([C@@H]5C[C@@H](F)CN5C(=O)[C@@H](NC(=O)OC)C(C)C)[nH]4)c4c3CC3(CCCC3)C4)cc2)[nH]1)C(C)C` [Example 29], the EC50 in the test on HCV GT1a replicon cells (Hepatitis C virus, GT1A) was 0.001 to 0.1 nM; with HCV GT1b replicon cells (Hepatitis C virus, GT1B, 72 h), 0.001 to 0.1 nM.
In the case of `COC(=O)N[C@H](C(=O)N1CCC[C@H]1c1ncc(-c2ccc(-c3ccc(-c4ccc5nc([C@@H]6CCCN6C(=O)[C@@H](NC(=O)OC)C(C)C)[nH]c5c4)c4c3C(=O)C3(CCCC3)C4)cc2)[nH]1)C(C)C` [Example 36], the EC50 in the test with HCV GT1a replicon cells (Hepatitis C virus, GT1A) was 0.001 to 0.1 nM; in the test with HCV GT1b replicon cells (Hepatitis C virus, GT1B, 72 h) it was 0.001 to 0.1 nM.
Take `COC(=O)N[C@H](C(=O)N1CCC[C@H]1c1ncc(-c2ccc(-c3ccc(-c4cnc([C@@H]5CCCN5C(=O)[C@@H](NC(=O)OC)C(C)C)[nH]4)c4c3C(=O)C3(CCCC3)C4)cc2)[nH]1)C(C)C` [Example 37]: the EC50 in the test with HCV GT1a replicon cells (Hepatitis C virus, GT1A) is 1 to 10 nM; in the test on HCV GT1b replicon cells (Hepatitis C virus, GT1B, 72 h), 1 to 10 nM.
Take `COC(=O)N[C@H](C(=O)N1CCC[C@H]1c1ncc(-c2ccc(-c3ccc(-c4ccc(-c5cnc([C@@H]6CCCN6C(=O)[C@@H](NC(=O)OC)C(C)C)[nH]5)cc4)c4c3CC3(CCCC3)C4)cc2)[nH]1)C(C)C` [Example 38]: the EC50 in the test on HCV GT1a replicon cells (Hepatitis C virus, GT1A) was 0.101 to 1 nM; in the test with HCV GT1b replicon cells (Hepatitis C virus, GT1B, 72 h), above 10 nM.
The matching figures for `COC(=O)N[C@H](C(=O)N1CCC[C@H]1C(=O)Nc1ccc(-c2ccc(-c3ccc(NC(=O)[C@@H]4CCCN4C(=O)[C@@H](NC(=O)OC)C(C)C)cc3)c3c2CC2(CCCC2)C3)cc1)C(C)C` [Example 39]: 0.001 to 0.1 nM and 0.101 to 1 nM.
For `COC(=O)N[C@H](C(=O)N1C[C@@H](C)C[C@H]1c1ncc(-c2ccc(-c3ccc(-c4ccc(-c5cnc([C@@H]6C[C@H](C)CN6C(=O)[C@@H](NC(=O)OC)C(C)C)[nH]5)cc4)c4c3CC3(CCCC3)C4)cc2)[nH]1)C(C)C` [Example 40], in that order: 0.001 to 0.1 nM and 1 to 10 nM.
For `COC(=O)N[C@H](C(=O)N1CC2(CC2)C[C@H]1c1ncc(-c2ccc(-c3ccc(-c4ccc(-c5cnc([C@@H]6CC7(CC7)CN6C(=O)[C@@H](NC(=O)OC)C(C)C)[nH]5)cc4)c4c3CC3(CCCC3)C4)cc2)[nH]1)C(C)C` [Example 41], in that order: 1 to 10 nM and above 10 nM.
For `CCC(C)[C@H](NC(=O)OC)C(=O)N1C2CC2C[C@H]1c1ncc(-c2ccc(-c3ccc(-c4cnc([C@@H]5CC6CC6N5C(=O)[C@@H](NC(=O)OC)C(C)CC)[nH]4)c4c3CC3(CCCC3)C4)cc2)[nH]1` (some centres unmarked) [Example 43], the EC50 in the test on HCV GT1a replicon cells (Hepatitis C virus, GT1A) is 0.001 to 0.1 nM; in the test on HCV GT1b replicon cells (Hepatitis C virus, GT1B, 72 h), above 10 nM.
The matching figures for `COC(=O)N[C@H](C(=O)N1CCCC[C@H]1c1ncc(-c2ccc(-c3ccc(-c4cnc([C@@H]5CCCCN5C(=O)[C@@H](NC(=O)OC)C(C)C)[nH]4)c4c3CC3(CCCC3)C4)cc2)[nH]1)C(C)C` [Example 45]: 0.001 to 0.1 nM and above 10 nM.
The matching figures for `COC(=O)N[C@H](C(=O)N1CCC[C@H]1c1ncc(-c2ccc3cc(-c4ccc(-c5cnc([C@@H]6CCCN6C(=O)[C@@H](NC(=O)OC)C(C)C)[nH]5)c5c4CC4(CCCCC4)C5)ccc3c2)[nH]1)C(C)C` [Example 49]: 0.001 to 0.1 nM and 1 to 10 nM.
The matching figures for `COC(=O)N[C@H](C(=O)N1CCC[C@H]1c1ncc(-c2ccc(-c3ccc(-c4cnc([C@@H]5CCCN5C(=O)[C@@H](NC(=O)OC)C(C)C)[nH]4)c4c3CC3(CCCCC3)C4)cc2)[nH]1)C(C)C` [Example 50]: 0.001 to 0.1 nM and 1 to 10 nM.
As to `COC(=O)NC(C(=O)N1CC2(C[C@H]1c1ncc(-c3ccc(-c4ccc(-c5cnc([C@@H]6CCCN6C(=O)[C@@H](NC(=O)OC)C(C)C)[nH]5)c5c4CC4(CCCC4)C5)cc3)[nH]1)OCCO2)C(C)C` (some centres unmarked) [Example 51], the EC50 in the test on HCV GT1a replicon cells (Hepatitis C virus, GT1A) is 0.001 to 0.1 nM; in the test with HCV GT1b replicon cells (Hepatitis C virus, GT1B, 72 h), above 10 nM.
For `COC(=O)N[C@H](C(=O)N1C(c2ncc(-c3ccc(-c4ccc(-c5ccc6nc([C@@H]7CC8CC8N7C(=O)[C@@H](NC(=O)OC)C(C)C)[nH]c6c5)c5c4CC4(CCCC4)C5)cc3)[nH]2)CC2CC21)C(C)C` (some centres unmarked) [Example 54], in that order: 0.001 to 0.1 nM and 0.101 to 1 nM.
The matching figures for `COC(=O)N[C@H](C(=O)N1CCCC1C(=O)Nc1cccc(-c2ccc(-c3ccc(-c4cnc([C@@H]5CCCN5C(=O)[C@@H](NC(=O)OC)C(C)C)[nH]4)cc3)c3c2CC2(CCCC2)C3)c1)C(C)C` (some centres unmarked) [Example 56]: 0.001 to 0.1 nM and 1 to 10 nM.
